Data taken from US6737383B1, “Herbicidal oxadiazolidines” (priority 1999, dated 2004).

What was measured:
bedstraw = experiment: Test B pre/postemergence bedstraw; format: in vivo, Galium aparine
Summary of the method: (§1)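 Test chemicals in a non-phytotoxic solvent mixture with surfactant were sprayed preemergence onto planted seeds and postemergence onto plants 2 to 18 cm tall (1- to 4-leaf stage). After twelve to sixteen days in a greenhouse, injury was visually rated against untreated controls from 0 (no effect) to 10 (complete control).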

blackgrass = experiment: Test B pre/postemergence blackgrass; format: in vivo, Alopecurus myosuroides
Summary of the method: as §1

velvetleaf = experiment: Test B pre/postemergence velvetleaf; format: in vivo, Abutilon theophrasti
Summary of the method: as §1

wheat = experiment: Test B pre/postemergence wheat; format: in vivo, Triticum aestivum
Summary of the method: as §1

[1] = Postemergence, Rate 250 g/ha, scale 0 to 10, 0 no effect, 10 complete control
[2] = Postemergence, Rate 1000 g/ha, scale 0 to 10 (0 no effect, 10 complete control)
[3] = Preemergence, Rate 125 g/ha, scale 0 to 10 (0 no effect, 10 complete control)
[4] = Preemergence, Rate 250 g/ha, scale of 0 to 10 where 0 is no effect and 10 is complete control
[5] = Preemergence, Rate 500 g/ha, scale 0 (no effect) to 10 (complete control)
[6] = Rate 125 g/ha, Postemergence, scale 0 to 10, 0 no effect, 10 complete control
[7] = Rate 500 g/ha, Postemergence, 0 to 10 scale (0 no effect, 10 complete control)
[8] = Rate 1000 g/ha, Preemergence, scale 0 to 10 (0 no effect, 10 complete control)
[9] = Postemergence, Rate 62 g/ha, scale 0 to 10, 0 is no effect, 10 is complete control
[10] = Postemergence, Rate 125 g/ha, scale of 0 to 10 where 0 is no effect and 10 is complete control
[11] = Postemergence, Rate 250 g/ha, scale of 0 to 10, 0 is no effect, 10 is complete control
[12] = Postemergence, Rate 500 g/ha, scale of 0 to 10 where 0 is no effect and 10 is complete control
[13] = Preemergence, Rate 62 g/ha, scale of 0 to 10 where 0 is no effect and 10 is complete control
[14] = Preemergence, Rate 125 g/ha, scale of 0 to 10 where 0 is no effect and 10 is complete control
[15] = Preemergence, Rate 250 g/ha, scale 0 to 10 (0 no effect, 10 complete control)
[16] = Preemergence, Rate 500 g/ha, scale of 0 to 10 where 0 is no effect and 10 is complete control
[17] = Postemergence, Rate 250 g/ha, scale 0 to 10
[18] = Preemergence, Rate 250 g/ha, scale 0 to 10, 0 is no effect, 10 is complete control
[19] = Preemergence, Rate 500 g/ha, scale 0 to 10, 0 is no effect, 10 is complete control
[20] = Rate 62 g/ha, Postemergence, scale 0 to 10 (0 no effect, 10 complete control)
[21] = Rate 125 g/ha, Postemergence, scale 0 to 10, 0 is no effect, 10 is complete control
[22] = Rate 500 g/ha, Postemergence, scale 0 to 10, 0 is no effect, 10 is complete control

## CCN(CC)C(=O)n1oc(=O)n(-c2ccc(F)cc2)c1=O [Compound 3]
bedstraw; [1]
  Bedstraw plant response rating: 0
bedstraw; [2]
  Bedstraw plant response rating: 0
bedstraw; [3]
  Plant response rating, Bedstraw: 0
bedstraw; [4]
  Plant response rating, Bedstraw: 0
bedstraw; [5]
  Bedstraw plant response rating: 0
bedstraw; [6]
  Bedstraw plant response rating: 0
bedstraw; [7]
  Bedstraw plant response rating: 0
bedstraw; [8]
  Plant response rating, Bedstraw: 0
blackgrass; [1]
  Blackgrass plant response rating: 0
blackgrass; [2]
  Blackgrass plant response rating: 3
blackgrass; [3]
  Plant response rating, Blackgrass: 0
blackgrass; [4]
  Plant response rating, Blackgrass: 0
blackgrass; [5]
  Blackgrass plant response rating: 0
blackgrass; [6]
  Blackgrass plant response rating: 0
blackgrass; [7]
  Blackgrass plant response rating: 0
blackgrass; [8]
  Plant response rating, Blackgrass: 0
velvetleaf; [1]
  Velvetleaf plant response rating: 0
velvetleaf; [2]
  Velvetleaf plant response rating: 0
velvetleaf; [3]
  Plant response rating, Velvetleaf: 0
velvetleaf; [4]
  Plant response rating, Velvetleaf: 0
velvetleaf; [5]
  Velvetleaf plant response rating: 0
velvetleaf; [6]
  Velvetleaf plant response rating: 0
velvetleaf; [8]
  Plant response rating, Velvetleaf: 0
wheat; [1]
  Wheat plant response rating: 0
wheat; [2]
  Wheat plant response rating: 0
wheat; [3]
  Plant response rating, Wheat: 0
wheat; [4]
  Plant response rating, Wheat: 0
wheat; [5]
  Wheat plant response rating: 0
wheat; [6]
  Wheat plant response rating: 0
wheat; [8]
  Plant response rating, Wheat: 0

## CC(C)N(C(=O)n1oc(=O)n(CC(=O)C2CCC2)c1=O)c1ccc(F)cc1F [Compound 642]
blackgrass; [9]
  Plant response rating, Blackgrass: 0
blackgrass; [10]
  Blackgrass plant response rating: 0
blackgrass; [11]
  Blackgrass plant response rating: 6
blackgrass; [12]
  Plant response rating, Blackgrass: 6
blackgrass; [13]
  Blackgrass plant response rating: 0
blackgrass; [14]
  Blackgrass plant response rating: 0
blackgrass; [15]
  Plant response rating, Blackgrass: 4
blackgrass; [16]
  Plant response rating, Blackgrass: 7
velvetleaf; [9]
  Plant response rating, Velvetleaf: 0
velvetleaf; [10]
  Velvetleaf plant response rating: 0
velvetleaf; [11]
  Velvetleaf plant response rating: 3
velvetleaf; [13]
  Velvetleaf plant response rating: 0
velvetleaf; [14]
  Velvetleaf plant response rating: 0
velvetleaf; [15]
  Plant response rating, Velvetleaf: 0
velvetleaf; [16]
  Plant response rating, Velvetleaf: 3
wheat; [9]
  Plant response rating, Wheat: 0
wheat; [10]
  Wheat plant response rating: 0
wheat; [11]
  Wheat plant response rating: 0
wheat; [13]
  Wheat plant response rating: 0
wheat; [14]
  Wheat plant response rating: 0
wheat; [15]
  Plant response rating, Wheat: 0
wheat; [16]
  Plant response rating, Wheat: 0

## COC(OC)C(C)n1c(=O)on(C(=O)N(c2ccc(F)cc2)C(C)C)c1=O (stereo not shown) [Compound 471]
blackgrass; [17]
  Blackgrass plant response rating: 3
blackgrass; [12]
  Blackgrass plant response rating: 7
blackgrass; [13]
  Plant response rating, Blackgrass: 9
blackgrass; [14]
  Plant response rating, Blackgrass: 10
blackgrass; [18]
  Blackgrass plant response rating: 10
blackgrass; [19]
  Blackgrass plant response rating: 10
blackgrass; [20]
  Blackgrass plant response rating: 0
blackgrass; [21]
  Blackgrass plant response rating: 2
velvetleaf; [17]
  Velvetleaf plant response rating: 2
velvetleaf; [13]
  Plant response rating, Velvetleaf: 2
velvetleaf; [14]
  Plant response rating, Velvetleaf: 3
velvetleaf; [18]
  Velvetleaf plant response rating: 3
velvetleaf; [19]
  Velvetleaf plant response rating: 6
velvetleaf; [20]
  Velvetleaf plant response rating: 0
velvetleaf; [21]
  Velvetleaf plant response rating: 2
wheat; [17]
  Wheat plant response rating: 0
wheat; [13]
  Plant response rating, Wheat: 0
wheat; [14]
  Plant response rating, Wheat: 0
wheat; [18]
  Wheat plant response rating: 0
wheat; [19]
  Wheat plant response rating: 0
wheat; [20]
  Wheat plant response rating: 0
wheat; [21]
  Wheat plant response rating: 0

## COP(=O)(CCn1c(=O)on(C(=O)N(c2ccc(F)cc2)C(C)C)c1=O)OC [Compound 662]
blackgrass; [10]
  Blackgrass plant response rating: 0
blackgrass; [11]
  Blackgrass plant response rating: 0
blackgrass; [2]
  Blackgrass plant response rating: 6
blackgrass; [14]
  Blackgrass plant response rating: 3
blackgrass; [15]
  Plant response rating, Blackgrass: 4
blackgrass; [16]
  Plant response rating, Blackgrass: 9
blackgrass; [22]
  Blackgrass plant response rating: 3
blackgrass; [8]
  Plant response rating, Blackgrass: 9
velvetleaf; [10]
  Velvetleaf plant response rating: 0
velvetleaf; [2]
  Velvetleaf plant response rating: 0
velvetleaf; [14]
  Velvetleaf plant response rating: 0
velvetleaf; [15]
  Plant response rating, Velvetleaf: 0
velvetleaf; [16]
  Plant response rating, Velvetleaf: 2
velvetleaf; [22]
  Velvetleaf plant response rating: 0
velvetleaf; [8]
  Plant response rating, Velvetleaf: 2
wheat; [10]
  Wheat plant response rating: 0
wheat; [2]
  Wheat plant response rating: 0
wheat; [14]
  Wheat plant response rating: 0
wheat; [15]
  Plant response rating, Wheat: 0
wheat; [16]
  Plant response rating, Wheat: 0
wheat; [22]
  Wheat plant response rating: 0
wheat; [8]
  Plant response rating, Wheat: 5

## CC(C)N(C(=O)n1oc(=O)n(CCC#N)c1=O)c1ccc(Cl)cc1 [Compound 444]
blackgrass; [17]
  Blackgrass plant response rating: 5
blackgrass; [12]
  Blackgrass plant response rating: 7
blackgrass; [13]
  Plant response rating, Blackgrass: 0
blackgrass; [14]
  Plant response rating, Blackgrass: 0
blackgrass; [18]
  Blackgrass plant response rating: 8
blackgrass; [19]
  Blackgrass plant response rating: 8
blackgrass; [20]
  Blackgrass plant response rating: 0
blackgrass; [21]
  Blackgrass plant response rating: 2
velvetleaf; [17]
  Velvetleaf plant response rating: 0
velvetleaf; [12]
  Velvetleaf plant response rating: 3
velvetleaf; [13]
  Plant response rating, Velvetleaf: 0
velvetleaf; [14]
  Plant response rating, Velvetleaf: 0
velvetleaf; [18]
  Velvetleaf plant response rating: 0
velvetleaf; [19]
  Velvetleaf plant response rating: 4
velvetleaf; [20]
  Velvetleaf plant response rating: 0
velvetleaf; [21]
  Velvetleaf plant response rating: 0
wheat; [17]
  Wheat plant response rating: 0
wheat; [12]
  Wheat plant response rating: 0
wheat; [13]
  Plant response rating, Wheat: 0
wheat; [14]
  Plant response rating, Wheat: 0
wheat; [18]
  Wheat plant response rating: 0
wheat; [19]
  Wheat plant response rating: 0
wheat; [20]
  Wheat plant response rating: 0
wheat; [21]
  Wheat plant response rating: 0

## CCOP(=O)(Cn1c(=O)on(C(=O)N(c2ccccc2)C(C)C)c1=O)OCC [Compound 447]
blackgrass; [17]
  Blackgrass plant response rating: 0
blackgrass; [12]
  Blackgrass plant response rating: 2
blackgrass; [2]
  Blackgrass plant response rating: 7
blackgrass; [14]
  Plant response rating, Blackgrass: 0
blackgrass; [18]
  Blackgrass plant response rating: 0
blackgrass; [19]
  Blackgrass plant response rating: 0
blackgrass; [21]
  Blackgrass plant response rating: 0
blackgrass; [8]
  Plant response rating, Blackgrass: 3
velvetleaf; [17]
  Velvetleaf plant response rating: 0
velvetleaf; [12]
  Velvetleaf plant response rating: 0
velvetleaf; [2]
  Velvetleaf plant response rating: 0
velvetleaf; [14]
  Plant response rating, Velvetleaf: 0
velvetleaf; [18]
  Velvetleaf plant response rating: 0
velvetleaf; [19]
  Velvetleaf plant response rating: 0
velvetleaf; [21]
  Velvetleaf plant response rating: 0
velvetleaf; [8]
  Plant response rating, Velvetleaf: 0
wheat; [17]
  Wheat plant response rating: 0
wheat; [12]
  Wheat plant response rating: 0
wheat; [2]
  Wheat plant response rating: 0
wheat; [14]
  Plant response rating, Wheat: 0
wheat; [18]
  Wheat plant response rating: 0
wheat; [19]
  Wheat plant response rating: 0
wheat; [21]
  Wheat plant response rating: 0
wheat; [8]
  Plant response rating, Wheat: 0

## CC(C)N(C(=O)n1oc(=O)n(CCC(=O)N(C)C)c1=O)c1ccc(F)cc1 [Compound 638]
blackgrass; [9]
  Plant response rating, Blackgrass: 0
blackgrass; [10]
  Plant response rating, Blackgrass: 4
blackgrass; [11]
  Blackgrass plant response rating: 6
blackgrass; [12]
  Plant response rating, Blackgrass: 7
blackgrass; [13]
  Blackgrass plant response rating: 4
blackgrass; [14]
  Blackgrass plant response rating: 5
blackgrass; [15]
  Plant response rating, Blackgrass: 9
blackgrass; [16]
  Plant response rating, Blackgrass: 9
velvetleaf; [9]
  Plant response rating, Velvetleaf: 0
velvetleaf; [10]
  Plant response rating, Velvetleaf: 2
velvetleaf; [11]
  Velvetleaf plant response rating: 4
velvetleaf; [13]
  Velvetleaf plant response rating: 3
velvetleaf; [14]
  Velvetleaf plant response rating: 5
velvetleaf; [15]
  Plant response rating, Velvetleaf: 5
velvetleaf; [16]
  Plant response rating, Velvetleaf: 10
wheat; [9]
  Plant response rating, Wheat: 0
wheat; [10]
  Plant response rating, Wheat: 0
wheat; [11]
  Wheat plant response rating: 3
wheat; [13]
  Wheat plant response rating: 0
wheat; [14]
  Wheat plant response rating: 0
wheat; [15]
  Plant response rating, Wheat: 3
wheat; [16]
  Plant response rating, Wheat: 7
